Laboratory results taken from the supplement of paper PMC10307832.

Key:
Test in all cases: relative viability (nuclei count vs DMSO), 5 days (fraction); higher = more cells survive
RO-3306 + Crizotinib = compound: C1=CC2=C(C=CC(=C2)C=C3C(=O)NC(=NCC4=CC=CS4)S3)N=C1 [RO-3306] + C[C@@H](Oc1cc(-c2cnn(C3CCNCC3)c2)cnc1N)c1c(Cl)ccc(F)c1Cl [Crizotinib] (partner 1 µM)
Procedure, shortened: (§1)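 Relative viability equals treated-well nuclei counts divided by vehicle-well nuclei counts. Counts came from 4× images of lung cancer cell lines grown in 1536-well plates for 5 days after pin-tool dosing on the day after seeding. Dosing used one drug alone or a fixed anchor-drug dose plus five library-drug doses (not always all listed) in √10 steps, and values are medians of duplicate plates.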

RO-3306 + Foretinib = compound: C1=CC2=C(C=CC(=C2)C=C3C(=O)NC(=NCC4=CC=CS4)S3)N=C1 [RO-3306] + COc1cc2c(Oc3ccc(NC(=O)C4(C(=O)Nc5ccc(F)cc5)CC4)cc3F)ccnc2cc1OCCCN1CCOCC1 [Foretinib] (partner 0.25 µM)
Procedure, shortened: as §1

RO-3306 + Trametinib = compound: C1=CC2=C(C=CC(=C2)C=C3C(=O)NC(=NCC4=CC=CS4)S3)N=C1 [RO-3306] + CC(=O)Nc1cccc(-n2c(=O)n(C3CC3)c(=O)c3c(Nc4ccc(I)cc4F)n(C)c(=O)c(C)c32)c1 [Trametinib] (partner 0.02 µM)
Procedure, shortened: as §1

RO-3306 + Decitabine = compound: C1=CC2=C(C=CC(=C2)C=C3C(=O)NC(=NCC4=CC=CS4)S3)N=C1 [RO-3306] + Nc1ncn([C@H]2C[C@H](O)[C@@H](CO)O2)c(=O)n1 [Decitabine] (partner 2 µM)
Procedure, shortened: as §1

Row | Cell Line | relative viability (RO-3306 + Crizotinib; first compound 0.01 µM) | relative viability (RO-3306 + Crizotinib; first compound 0.03162 µM) | relative viability (RO-3306 + Crizotinib; first compound 0.1 µM) | relative viability (RO-3306 + Crizotinib; first compound 0.3162 µM) | relative viability (RO-3306 + Crizotinib; first compound 1 µM) | relative viability (RO-3306 + Foretinib; first compound 0.01 µM) | relative viability (RO-3306 + Foretinib; first compound 0.03162 µM) | relative viability (RO-3306 + Foretinib; first compound 0.1 µM) | relative viability (RO-3306 + Foretinib; first compound 0.3162 µM) | relative viability (RO-3306 + Foretinib; first compound 1 µM) | relative viability (RO-3306 + Trametinib; first compound 0.01 µM) | relative viability (RO-3306 + Trametinib; first compound 0.03162 µM) | relative viability (RO-3306 + Trametinib; first compound 0.1 µM) | relative viability (RO-3306 + Trametinib; first compound 0.3162 µM) | relative viability (RO-3306 + Trametinib; first compound 1 µM) | relative viability (RO-3306 + Decitabine; first compound 0.01 µM) | relative viability (RO-3306 + Decitabine; first compound 0.03162 µM) | relative viability (RO-3306 + Decitabine; first compound 0.1 µM) | relative viability (RO-3306 + Decitabine; first compound 0.3162 µM) | relative viability (RO-3306 + Decitabine; first compound 1 µM)
1 | NCI-H2085 | 0.677 | 0.715 | 0.774 | 0.775 | 0.791 | 0.866 | 0.766 | 0.78 | 1.11 | 0.94 | 0.509 | 0.632 | 0.527 | 0.613 | 0.595 | 0.54 | 0.506 | 0.463 | 0.539 | 0.578
2 | LOU-NH91 | 0.938 | 0.728 | 0.739 | 0.706 | 0.685 | 0.879 | 0.94 | 0.951 | 0.87 | 0.976 | 0.829 | 0.735 | 0.75 | 0.76 | 0.742 | 0.829 | 0.787 | 0.796 | 0.823 | 0.79
3 | NCI-H1975 | 1.18 | 0.815 | 1.06 | 1.04 | 0.997 | 0.975 | 1 | 1.02 | 0.985 | 0.793 | 0.348 | 0.319 | 0.309 | 0.33 | 0.331 | 0.336 | 0.386 | 0.376 | 0.405 | 0.5
4 | NCI-H23 | 0.493 | 0.304 | 0.462 | 0.56 | 0.425 | 0.972 | 0.728 | 0.833 | 1.08 | 0.978 | 0.344 |  | 0.352 | 0.388 | 0.375 | 0.338 |  | 0.334 | 0.341 | 0.301
5 | HCC-366 | 0.566 | 0.611 | 0.486 | 0.603 | 0.522 | 0.91 | 0.96 | 0.942 | 0.884 | 0.931 | 0.378 | 0.326 | 0.374 | 0.381 | 0.313 | 0.363 | 0.281 | 0.348 | 0.37 | 0.402
6 | LCLC-103H | 1.1 | 1.01 | 1.01 | 1.05 | 0.951 | 0.695 | 0.647 | 0.779 | 0.719 | 0.835 | 0.728 | 0.665 | 0.739 | 0.634 | 0.689 | 0.772 | 0.651 | 0.695 | 0.768 | 0.713
7 | HCC-827 | 0.95 | 0.866 | 0.943 | 0.903 | 0.972 | 1.07 | 1 | 1.05 | 1.03 | 1.06 | 0.544 | 0.476 | 0.516 | 0.571 | 0.462 | 0.339 | 0.316 | 0.345 | 0.379 | 0.289
8 | NCI-H2347 | 0.675 | 0.691 | 0.718 | 0.7 | 0.656 | 0.982 | 0.503 | 0.868 | 0.702 | 0.741 | 0.283 | 0.271 | 0.262 | 0.264 | 0.274 | 0.643 | 0.597 | 0.592 | 0.574 | 0.645
